# Results from patent publication US9346769B2, “Tetrazolones as inhibitors of fatty acid synthase” (Infinity Pharmaceuticals, Inc., priority 2010, dated 2016).
# pIC50: −log10 of the molar value.
# Target: T1, human FASN (Homo sapiens, UniProt P49327)
# T1 construct: was purified from SKBR3 cells using procedures modified from those in Jayakumar et al; endogenous in cells; host or cells: SKBR3 human breast cancer cells (ATCC); Endogenous enzyme purified by ammonium sulfate precipitation and a mono Q column
# T1 sequence (P49327 whole entry): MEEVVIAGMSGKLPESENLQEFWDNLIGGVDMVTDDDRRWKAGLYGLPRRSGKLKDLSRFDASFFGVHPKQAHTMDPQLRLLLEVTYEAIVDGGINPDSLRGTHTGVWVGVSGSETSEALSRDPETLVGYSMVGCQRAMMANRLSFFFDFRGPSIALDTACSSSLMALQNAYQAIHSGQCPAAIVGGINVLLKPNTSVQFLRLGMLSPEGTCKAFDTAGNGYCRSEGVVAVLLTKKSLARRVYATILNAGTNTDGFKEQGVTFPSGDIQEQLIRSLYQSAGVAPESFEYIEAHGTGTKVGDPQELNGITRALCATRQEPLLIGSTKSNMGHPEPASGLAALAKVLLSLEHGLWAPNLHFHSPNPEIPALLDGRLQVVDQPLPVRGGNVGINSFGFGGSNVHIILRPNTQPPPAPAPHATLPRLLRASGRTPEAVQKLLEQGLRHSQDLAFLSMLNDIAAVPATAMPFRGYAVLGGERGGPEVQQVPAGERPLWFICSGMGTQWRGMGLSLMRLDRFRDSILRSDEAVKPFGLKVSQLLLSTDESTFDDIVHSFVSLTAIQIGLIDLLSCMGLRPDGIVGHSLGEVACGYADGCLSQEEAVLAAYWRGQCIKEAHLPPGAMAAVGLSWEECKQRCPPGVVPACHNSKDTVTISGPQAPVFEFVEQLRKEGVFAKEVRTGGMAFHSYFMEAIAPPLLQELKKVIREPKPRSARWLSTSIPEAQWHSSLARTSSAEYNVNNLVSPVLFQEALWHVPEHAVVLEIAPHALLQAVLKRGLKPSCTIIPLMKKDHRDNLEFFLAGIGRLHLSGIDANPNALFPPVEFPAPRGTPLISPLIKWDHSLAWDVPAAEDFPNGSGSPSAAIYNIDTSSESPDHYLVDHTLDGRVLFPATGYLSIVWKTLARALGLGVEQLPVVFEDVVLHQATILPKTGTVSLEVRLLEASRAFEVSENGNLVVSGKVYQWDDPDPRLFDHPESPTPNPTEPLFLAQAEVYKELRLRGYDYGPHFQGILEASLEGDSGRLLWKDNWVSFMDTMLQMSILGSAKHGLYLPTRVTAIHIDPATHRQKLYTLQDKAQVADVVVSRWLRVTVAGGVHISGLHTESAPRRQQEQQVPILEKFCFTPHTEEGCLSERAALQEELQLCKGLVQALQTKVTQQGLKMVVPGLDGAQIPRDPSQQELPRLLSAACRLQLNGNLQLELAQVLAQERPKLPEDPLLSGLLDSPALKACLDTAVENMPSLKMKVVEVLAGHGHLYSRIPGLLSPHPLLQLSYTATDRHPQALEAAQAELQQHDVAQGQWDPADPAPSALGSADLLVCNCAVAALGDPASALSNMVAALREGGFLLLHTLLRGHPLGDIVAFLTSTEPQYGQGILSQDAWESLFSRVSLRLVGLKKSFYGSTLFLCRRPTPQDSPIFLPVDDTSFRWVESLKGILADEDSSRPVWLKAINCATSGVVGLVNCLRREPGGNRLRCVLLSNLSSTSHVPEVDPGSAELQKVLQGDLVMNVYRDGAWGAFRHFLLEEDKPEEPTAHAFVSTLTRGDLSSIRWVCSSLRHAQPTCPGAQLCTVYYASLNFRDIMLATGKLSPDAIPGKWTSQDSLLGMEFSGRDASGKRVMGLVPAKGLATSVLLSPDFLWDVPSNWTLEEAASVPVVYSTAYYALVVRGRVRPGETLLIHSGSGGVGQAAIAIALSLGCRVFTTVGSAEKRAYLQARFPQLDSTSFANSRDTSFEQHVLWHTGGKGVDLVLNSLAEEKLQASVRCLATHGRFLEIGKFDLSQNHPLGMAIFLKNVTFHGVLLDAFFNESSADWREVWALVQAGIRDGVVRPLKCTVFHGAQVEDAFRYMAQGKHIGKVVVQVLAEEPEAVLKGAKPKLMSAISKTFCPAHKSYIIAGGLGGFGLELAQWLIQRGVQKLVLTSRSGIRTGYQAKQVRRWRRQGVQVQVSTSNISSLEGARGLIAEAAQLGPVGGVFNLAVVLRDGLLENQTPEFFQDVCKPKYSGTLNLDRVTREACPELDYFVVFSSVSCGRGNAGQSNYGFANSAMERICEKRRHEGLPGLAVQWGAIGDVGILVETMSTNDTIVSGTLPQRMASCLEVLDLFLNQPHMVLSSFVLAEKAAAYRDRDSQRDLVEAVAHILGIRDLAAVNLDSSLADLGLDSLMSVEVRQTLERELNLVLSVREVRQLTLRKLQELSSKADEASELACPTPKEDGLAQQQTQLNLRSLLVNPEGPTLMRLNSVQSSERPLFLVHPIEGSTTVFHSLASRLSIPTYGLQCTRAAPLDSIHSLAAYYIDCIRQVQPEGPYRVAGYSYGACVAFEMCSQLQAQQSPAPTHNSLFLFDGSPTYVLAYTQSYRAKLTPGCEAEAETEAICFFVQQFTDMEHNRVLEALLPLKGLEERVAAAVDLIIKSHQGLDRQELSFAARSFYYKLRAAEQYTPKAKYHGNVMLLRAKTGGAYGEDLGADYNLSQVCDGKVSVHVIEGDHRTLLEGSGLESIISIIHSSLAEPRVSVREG
# Experiment: FASN Scintillation Proximity Flashplate Assay
# Format: biochemical
# Details: human FASN purified from SKBR3 cells; unstarred symbols
# Protocol: Human FASN protein (SEQ ID NO. 1) was purified from SKBR3 cells using procedures modified from those in Jayakumar et al. PNAS 1995, 92:8695-8699. SKBR3 cells were obtained from ATCC and grown in DMEM high glucose medium supplemented with 10% FBS, 1 μg/mL bovine pancreas insulin, 100 U/mL penicillin and 100 µg/mL streptomycin. The confluent cells were trypsinized and washed three times with PBS buffer before frozen in liquid N2 and stored at −80° C. Frozen cells were thawed on ice and resuspended in lysis buffer (25 mM Tris-HCl, pH 7.0, 15 mM NaCl, 1 mM EDTA, and 1 mM DTT) with protease inhibitors. The cells were lysed by sonication, and the cell debris was removed by centrifugation at 20,000 rpm for 30 min. To the supernatant, neutralized saturated ammonium sulfate solution was added to a final concentration of 35%. The solution was left on ice for 1 hr, and the precipitated proteins were harvested by centrifugation at 20,000 rpm for 30 min. The proteins were redissolved in lysis buffer without NaCl and loaded on a mono Q column. Bound proteins were eluted with a linear gradient of NaCl in lysis buffer. Each fraction was analyzed by SDS-PAGE and FASN NADPH consumption assay. The fractions containing FASN were pooled and concentrated to 2-3 mg/mL. Glycerol was added to 20%, and the protein was frozen in liquid N2 and stored at −80° C.
# Acetyl-coenzyme A, malonyl-coenzyme A, NADPH, bovine gamma globulin, and ORLISTAT were purchased from Sigma (St. Louis, Mo.). Tris(2-carboxyethyl) phosphine hydrochloride (TCEP) was purchased from Pierce Biotechnologies (Rockford, Ill.). [^3H]-acetyl-coenzyme A was purchased from Moravek Biochemicals (Brea, CA). FlashPlate™ PLUS phospholipid 96-well scintillant coated microplates were purchased from Perkin Elmer Life and Analytical Sciences (Shelton, CT). The method of the FASN Scintillation Proximity FlashPlate assay is similar to that described in Weiss and Glickman Assay Drug Dev Technol 2003, 1:161-6. In a 96-well polypropylene microplate, a dilution series (typical concentrations 60 nM-1.0 mM) of test compounds were prepared in DMSO followed by a 20-fold dilution into FASN assay buffer (50 mM potassium phosphate, pH 7.0, 1.0 mM EDTA, 0.01% NP-40), of which 5.0 μL each was transferred to a FlashPlate® PLUS 96-well plate and mixed with 35 μL FASN assay buffer plus 0.5 mg/mL bovine gamma globulin and 1 mM TCEP. FASN protein (10 μL, 10 nM) was added per well, and the microplate was incubated at 37° C. for 30 min. 10 μL of 20 mM NADPH was added, and the reaction was initiated by addition of […] substrate mixture to final concentrations of 1 nM FASN, 100 μM acetyl-coenzyme A, 6 μCi [^3H]-acetyl-coenzyme A, 300 μM malonyl-coenzyme A, 2 mM NADPH, 0.5 mg/mL bovine gamma globulin, and 1 mM TCEP in a volume of 100 μL per well. Assay plates were incubated for 2 hr at 37° C. and the reaction was stopped with 2 μL of 2.5 mM stock solution of ORLISTAT in DMSO to ˜50 μM. The plates were read in a Wallac 1450 Microbeta Plus liquid scintillation counter (Perkin Elmer, Waltham, Mass.), and counts per minute (CPM) were collected over 2 min. Each inhibitor well CPM was compared to the maximum FASN enzyme activity (Max) CPM and the background (Min) CPM, as measured by omission of FASN enzyme in the background well. % Inhibition values were calculated, and curves were fitted by a four-parameter logistic function to yield IC50 values:
# Compounds were assayed as inhibitors of human FASN using the above-described FASN Scintillation Proximity Flashplate Assay (IC50; nM) or FASN NADPH Consumption Assay (*) (IC50; nM). The corresponding activity of the isolated compound is also provided along with the measured mass (ES^+).
row,Compound,pIC50
1,COc1ccc(C(=O)O)cc1N(C(=O)n1nnn(-c2c(F)cccc2F)c1=O)C1CCCCC1,> 7.82
2,CC(C)N(C(=O)n1nnn(-c2c(F)cccc2F)c1=O)c1ccc(C(=O)OCc2ccccc2)cc1Oc1ccccc1,> 7.82
3,CCN(C(=O)n1nnn(-c2c(F)cccc2F)c1=O)c1cc(C(=O)O)ccc1OCCc1ccccc1,> 7.82
4,CC(C)N(C(=O)n1nnn(-c2c(F)cccc2F)c1=O)c1ccc(N(S(C)(=O)=O)S(C)(=O)=O)c(C(=O)OCc2ccccc2)c1,> 7.82
5,O=C(O)c1cc(N(C(=O)n2nnn(-c3c(F)cccc3F)c2=O)C2CCCCC2)ccc1N1CCOCC1,7.00 to 7.82
6,COc1ccc(N(C(=O)n2nnn(-c3c(F)cccc3OC)c2=O)C2CCCC2)cc1C(=O)O,> 7.82
7,COc1ccc(N(C(=O)n2nnn(-c3c(F)cccc3C(=O)N(C)Cc3ccccc3)c2=O)C(C)C)cc1C(=O)O,> 7.82
8,COc1ccc(N(C(=O)n2nnn(-c3c(F)cccc3F)c2=O)C2CCCCC2)c(OC)c1C(=O)OCc1ccccc1,> 7.82
9,CN(C)N(C(=O)n1nnn(-c2c(Cl)cccc2Cl)c1=O)C1=CCCC1,7.00 to 7.82
10,COc1ccc(N(C(=O)n2nnn(-c3cccc4nc[nH]c34)c2=O)C2CCCCC2)cc1C(=O)O,6.70 to 7.00
11,O=C(O)c1cc(N(C(=O)n2nnn(-c3c(F)cccc3F)c2=O)C2CCCCC2)ccc1OC(=O)N1CCOCC1,> 7.82
12,CCN(C(=O)n1nnn(-c2c(F)cccc2C(=O)NCc2ccccc2)c1=O)c1ccccc1Oc1ccccc1,7.00 to 7.82
13,CN(Cc1cccc2ccccc12)C(=O)n1nnn(-c2c(F)cccc2F)c1=O,6.70 to 7.00
14,CCN(C(=O)n1nnn(-c2c(F)cccc2F)c1=O)c1ccc(F)cc1F,> 7.82
15,COc1ccc(C(=O)OCc2ccccc2)cc1N(CCCc1ccccc1)C(=O)n1nnn(-c2c(F)cccc2F)c1=O,> 7.82
16,CCN(C(=O)n1nnn(-c2c(Cl)cccc2Cl)c1=O)c1ccc(C(=O)O)c(Cl)c1,> 7.82
17,COc1cccc(F)c1-n1nnn(C(=O)N(CC(C)(C)C)c2cccc(C(=O)O)c2)c1=O,5.30 to 6.70
18,CC(C)(C)OC(=O)N1CCN(c2ccc(N(C(=O)n3nnn(-c4c(F)cccc4F)c3=O)C3CCCCC3)cc2C(=O)O)CC1,> 7.82
19,CCN(C(=O)n1nnn(-c2c(Cl)cccc2Cl)c1=O)c1cccc(C(=O)O)c1,7.00 to 7.82
20,CCN(C(=O)n1nnn(-c2c(F)cccc2OC)c1=O)c1cc(C(=O)O)ccc1OC(C)C,7.00 to 7.82
21,CNC(=O)c1cc(N(C(=O)n2nnn(-c3c(F)cccc3F)c2=O)C2CCCCC2)ccc1OC,> 7.82
22,CCN(C(=O)n1nnn(-c2c(Cl)cccc2Cl)c1=O)c1ccc(C(=O)OC)cc1,7.00 to 7.82

row,Compound,pIC50
1,CN(C)N(C(=O)n1nnn(-c2ccccc2Cl)c1=O)C1=CCCC1,7.00 to 7.82
2,COc1ccc(N(C(=O)n2nnn(-c3cccc4nsnc34)c2=O)C2CCCCC2)cc1C(=O)O,7.00 to 7.82
3,O=C(N(c1ccccc1)C1CCCCC1)n1nnn(-c2c(F)cccc2F)c1=O,> 7.82
4,COc1ccc(N(C(=O)n2nnn(-c3c(F)cccc3C(=O)N3CCOCC3)c2=O)C(C)C)cc1C(=O)O,5.30 to 6.70
5,O=C(O)c1ccc(N(C(=O)n2nnn(-c3c(F)cccc3F)c2=O)C2CCCCC2)cc1O,> 7.82
6,CCN(C(=O)n1nnn(-c2c(Cl)cccc2Cl)c1=O)c1ccc(OC)cc1,7.00 to 7.82
7,O=C(O)c1ccc(N(C(=O)n2nnn(-c3c(F)cccc3F)c2=O)C2CCCCC2)c(Oc2ccccc2)c1,> 7.82
8,CCN(C(=O)n1nnn(-c2ccccc2OC)c1=O)c1cc(C(=O)O)ccc1OCCc1ccccc1,> 7.82
9,COc1ccc(COC(=O)[C@H]2CC[C@H](N(C(=O)n3nnn(-c4c(F)cccc4OC)c3=O)c3ccccc3)CC2)cc1,7.00 to 7.82
10,COc1ccc(N(C(=O)n2nnn(-c3c(F)cccc3N3CCOCC3)c2=O)C2CCCCC2)cc1C(=O)O,7.00 to 7.82
11,COc1ccc(N(C(=O)n2nnn(-c3c(F)cccc3C(=O)N(C)Cc3ccccc3)c2=O)C(C)C)cc1C(=O)OCc1ccccc1,> 7.82
12,CCNC(=O)N1CCN(c2ccc(N(C(=O)n3nnn(-c4c(F)cccc4F)c3=O)C3CCCCC3)cc2C(=O)O)CC1,> 7.82
13,COc1cc(OC)c(N(C(=O)n2nnn(-c3c(F)cccc3F)c2=O)C2CCCCC2)cc1C(=O)O,> 7.82
14,COc1ccc(N(C(=O)n2nnn(-c3c(F)cccc3F)c2=O)C(C)C)cc1C(=O)O,> 7.82
15,COc1cccc(F)c1-n1nnn(C(=O)N(c2cc(C(=O)O)ccc2Oc2ccccc2)C(C)C)c1=O,> 7.82
16,COc1cccc(F)c1-n1nnn(C(=O)N(c2cccc(C(=O)OCc3ccccc3)c2)C(C)(C)C)c1=O,5.30 to 6.70
17,COC(=O)c1cc(N(C(=O)n2nnn(-c3c(F)cccc3F)c2=O)C2CCCCC2)ccc1OC,> 7.82
18,CC(C)N(C(=O)n1nnn(-c2c(F)cccc2F)c1=O)c1ccc(C(=O)O)cc1F,> 7.82
19,CCN(C(=O)n1nnn(-c2c(F)cccc2F)c1=O)c1c(F)cccc1F,> 7.82
20,COc1ccc(N(C(=O)n2nnn(-c3c(F)cccc3OC)c2=O)C(C)C)cc1C(=O)OCc1ccccc1,> 7.82
21,COc1ccc(N(C(=O)n2nnn(-c3c(F)cccc3C(=O)N(C)C)c2=O)C(C)C)cc1C(=O)O,5.30 to 6.70
22,CC(C)N(C(=O)n1nnn(-c2c(F)cccc2F)c1=O)c1ccc(C(=O)OCc2ccccc2)cc1F,> 7.82

row,Compound,pIC50
1,COc1ccc(N(C(=O)n2nnn(-c3c(F)cccc3C(=O)N3CCCCC3)c2=O)C(C)C)cc1C(=O)O,7.00 to 7.82
2,COc1ccc(N(C(=O)n2nnn(-c3c(F)cccc3OC(C)C)c2=O)C2CCCCC2)cc1C(=O)O,> 7.82
3,COc1ccc(C(=O)O)cc1N(C(=O)n1nnn(-c2c(F)cccc2OC(C)C)c1=O)C1CCCCC1,7.00 to 7.82
4,CC(C)(C)OC(=O)Nc1ccc(N(C(=O)n2nnn(-c3c(F)cccc3F)c2=O)C2CCCCC2)cc1C(=O)O,> 7.82
5,CCN(C(=O)n1nnn(-c2c(F)cccc2OC)c1=O)c1ccc(OC)c(C(=O)O)c1,7.00 to 7.82
6,COc1cccc(F)c1-n1nnn(C(=O)N(c2cccc(C(=O)O)c2)C(C)C)c1=O,7.00 to 7.82
7,O=C(O)c1ccc(N(C(=O)n2nnn(-c3c(F)cccc3F)c2=O)C2CCCC2)c(Oc2ccccc2)c1,> 7.82
8,CC(C)N(C(=O)n1nnn(-c2c(F)cccc2F)c1=O)c1cccc(C(=O)O)c1,7.00 to 7.82
9,COc1ccc(N(C(=O)n2nnn(-c3c(F)cccc3C(=O)N3CCCCC3)c2=O)C(C)C)cc1C(=O)OCc1ccccc1,> 7.82
10,CN(C)c1ccc(N(C(=O)n2nnn(-c3c(F)cccc3F)c2=O)C2CCCCC2)cc1C(=O)O,> 7.82
11,CCN(C(=O)n1nnn(-c2ccccc2Oc2ccccc2)c1=O)c1ccc(C(=O)O)cc1,> 7.82
12,CN(C)N(C(=O)n1nnn(-c2ccccc2Cl)c1=O)C1=CCCCCC1,6.70 to 7.00
13,CCN(C(=O)n1nnn(-c2c(F)cccc2F)c1=O)c1ccc(N)cc1F,> 7.82
14,CCN(C(=O)n1nnn(-c2c(F)cccc2F)c1=O)c1ccc(NS(C)(=O)=O)cc1F,> 7.82
15,COc1ccc(N(C(=O)n2nnn(-c3ccccc3C#N)c2=O)C2CCCCC2)cc1C(=O)O,6.70 to 7.00
16,CCOC(=O)N1CCN(c2ccc(N(C(=O)n3nnn(-c4c(F)cccc4F)c3=O)C3CCCCC3)cc2C(=O)O)CC1,> 7.82
17,CCN(C(=O)n1nnn(-c2c(F)cccc2F)c1=O)c1ccc(C(=O)O)cc1Oc1ccccc1,> 7.82
18,CCN(C(=O)n1nnn(-c2c(F)cccc2C(=O)N2CCCCC2)c1=O)c1ccccc1Oc1ccccc1,6.70 to 7.00
19,O=C(O)[C@@H]1CCCN1c1ccc(N(C(=O)n2nnn(-c3c(F)cccc3F)c2=O)C2CCCCC2)cc1,> 7.82
20,CC(C)N(C(=O)n1nnn(-c2c(F)cccc2F)c1=O)c1ccc(NS(C)(=O)=O)c(C(=O)O)c1,> 7.82
